Reference: US9580437B2, “Triazolopyrimidine compounds and uses thereof” (Novartis AG, priority 2014, dated 2017)

Tests used:
[1] = target: EED (1-441)-His protein (Homo sapiens (Human), UniProt O75530); assay: EED-H3K27Me3 peptide competition binding assay by AlphaScreen; details: read-out: (a) IC50 EED Alphascreen binding Qualified
Source text: EED-H3K27Me3 peptide competition binding assay by AlphaScreen (α-screen)

[2] = target: wild type PRC2 (wtPRC2) complex (Homo sapiens (Human), UniProt O75530); assay: EED LC-MS assay; type: biochemical; details: read-out: (b) IC50 EED LC-MS Qualified
wild type PRC2 (wtPRC2) complex, sequence (O75530 whole entry): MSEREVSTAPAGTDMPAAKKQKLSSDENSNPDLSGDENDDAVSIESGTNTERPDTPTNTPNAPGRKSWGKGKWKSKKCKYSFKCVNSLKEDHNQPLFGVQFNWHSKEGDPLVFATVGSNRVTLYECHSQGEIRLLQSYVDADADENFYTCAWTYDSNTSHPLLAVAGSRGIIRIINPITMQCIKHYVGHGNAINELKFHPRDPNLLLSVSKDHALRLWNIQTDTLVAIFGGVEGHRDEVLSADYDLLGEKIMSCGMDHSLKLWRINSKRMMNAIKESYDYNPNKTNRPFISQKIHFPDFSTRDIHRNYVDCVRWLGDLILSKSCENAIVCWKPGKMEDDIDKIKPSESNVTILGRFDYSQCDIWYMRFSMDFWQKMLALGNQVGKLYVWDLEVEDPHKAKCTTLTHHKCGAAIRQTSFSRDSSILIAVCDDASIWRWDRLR
wild type PRC2 (wtPRC2) complex, sequence (Q15910 whole entry partner): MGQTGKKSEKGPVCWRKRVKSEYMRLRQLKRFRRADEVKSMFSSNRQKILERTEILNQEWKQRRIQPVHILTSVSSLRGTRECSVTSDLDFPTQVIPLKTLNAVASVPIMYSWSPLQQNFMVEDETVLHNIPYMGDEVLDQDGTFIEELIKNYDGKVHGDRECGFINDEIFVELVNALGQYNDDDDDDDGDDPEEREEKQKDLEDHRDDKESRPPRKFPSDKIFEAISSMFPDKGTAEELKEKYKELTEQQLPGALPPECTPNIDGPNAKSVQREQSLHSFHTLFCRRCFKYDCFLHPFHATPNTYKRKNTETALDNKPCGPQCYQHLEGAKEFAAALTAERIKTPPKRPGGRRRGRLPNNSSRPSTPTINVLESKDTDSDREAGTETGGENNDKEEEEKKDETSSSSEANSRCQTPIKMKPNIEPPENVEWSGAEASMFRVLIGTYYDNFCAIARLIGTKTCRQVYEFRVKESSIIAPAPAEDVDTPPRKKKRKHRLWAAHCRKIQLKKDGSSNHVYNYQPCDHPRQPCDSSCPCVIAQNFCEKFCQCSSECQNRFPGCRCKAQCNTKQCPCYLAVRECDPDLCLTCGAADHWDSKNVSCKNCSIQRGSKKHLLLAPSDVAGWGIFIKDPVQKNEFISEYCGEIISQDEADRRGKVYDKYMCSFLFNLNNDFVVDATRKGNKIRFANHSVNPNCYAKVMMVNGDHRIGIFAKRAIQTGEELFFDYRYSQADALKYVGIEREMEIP
wild type PRC2 (wtPRC2) complex, sequence (Q15022 whole entry partner): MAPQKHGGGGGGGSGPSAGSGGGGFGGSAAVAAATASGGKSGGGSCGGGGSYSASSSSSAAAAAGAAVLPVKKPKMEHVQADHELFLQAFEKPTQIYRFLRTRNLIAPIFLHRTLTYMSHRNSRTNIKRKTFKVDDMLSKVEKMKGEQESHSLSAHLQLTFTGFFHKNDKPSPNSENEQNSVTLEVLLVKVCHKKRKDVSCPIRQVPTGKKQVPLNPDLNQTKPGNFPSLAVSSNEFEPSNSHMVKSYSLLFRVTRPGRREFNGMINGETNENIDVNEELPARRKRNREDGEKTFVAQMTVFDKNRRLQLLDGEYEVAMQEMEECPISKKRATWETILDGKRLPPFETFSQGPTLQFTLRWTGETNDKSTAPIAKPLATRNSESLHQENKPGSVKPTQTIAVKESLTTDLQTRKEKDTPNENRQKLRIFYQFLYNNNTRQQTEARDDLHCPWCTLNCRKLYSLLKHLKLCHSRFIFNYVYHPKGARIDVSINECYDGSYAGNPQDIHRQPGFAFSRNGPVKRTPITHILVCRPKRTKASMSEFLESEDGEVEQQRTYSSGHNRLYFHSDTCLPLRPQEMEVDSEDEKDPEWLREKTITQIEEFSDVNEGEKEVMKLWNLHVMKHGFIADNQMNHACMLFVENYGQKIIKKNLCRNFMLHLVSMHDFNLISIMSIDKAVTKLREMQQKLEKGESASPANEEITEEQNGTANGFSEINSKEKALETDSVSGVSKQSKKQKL
Experimental: A 6 μL solution of 3 μM of the peptide substrate H3K27Me0 (histone H3[21-44]-biotin) in reaction buffer was added to initiate each reaction. […] ELISA (H3K27 Methylation) Assay

EED (1-441)-His protein, sequence (O75530 whole entry): as the sequence (O75530 whole entry) above

| SMILES | IC50 [1] [µM] | IC50 [2] [µM] |
| --- | --- | --- |
| OCc1ncccc1-c1cnc(NCc2c(F)ccc3c2CCO3)n2cnnc12 [Example 7, (3-(5-(((5-fluoro-2,3-dihydrobenzofuran-4-yl)methyl)amino)-[1,2,4]triazolo[4,3-c]pyrimidin-8-yl)pyridin-2-yl)methanol] | 0.0048 | 0.0093 |
| c1ccc(-c2cnc(NCc3cccc4c3CCO4)n3cnnc23)cc1 [Example 13, N-((2,3-dihydrobenzofuran-4-yl)methyl)-8-phenyl-[1,2,4]triazolo[4,3-c]pyrimidin-5-amine] | 0.0536 | 0.0477 |
| CN1CCN(c2ccc(-c3cnc(NCc4cccc5occc45)n4cnnc34)cc2)CC1 [Example 209, N-(benzofuran-4-ylmethyl)-8-(4-(4-methylpiperazin-1-yl)phenyl)-[1,2,4]triazolo[4,3-c]pyrimidin-5-amine] | 0.0369 | 0.029 |
| CNC(=O)c1ccc(-c2cnc(NCc3cccc4c3CCO4)n3cnnc23)cn1 [Example 79, 5-(5-(((2,3-dihydrobenzofuran-4-yl)methyl)amino)-[1,2,4]triazolo[4,3-c]pyrimidin-8-yl)-N-methylpicolinamide] | 0.0575 | 0.103 |
| CCOc1ncc(-c2cnc(NCc3c(F)ccc4c3CCO4)n3cnnc23)c(C)n1 [Example 226, 8-(2-ethoxy-4-methylpyrimidin-5-yl)-N-((5-fluoro-2,3-dihydrobenzofuran-4-yl)methyl)-[1,2,4]triazolo[4,3-c]pyrimidin-5-amine] | 0.0039 | 0.005 |
| Cc1c(-c2cnc(NCc3c(F)ccc4c3C(O)CO4)n3cnnc23)ccc[n+]1[O-] (stereo not drawn) [Example 244, 3-(5-(((5-fluoro-3-hydroxy-2,3-dihydrobenzofuran-4-yl)methyl)amino)-[1,2,4]triazolo[4,3-c]pyrimidin-8-yl)-2-methylpyridine 1-oxide] | 0.0117 | 0.0389 |
| COc1cc(F)c(-c2cnc(NCc3c(F)ccc4c3CCO4)n3cnnc23)cn1 [Example 161, N-((5-fluoro-2,3-dihydrobenzofuran-4-yl)methyl)-8-(4-fluoro-6-methoxypyridin-3-yl)-[1,2,4]triazolo[4,3-c]pyrimidin-5-amine] | 0.0036 | 0.0098 |
| Cc1nn(CCO)c(C)c1-c1cnc(NCc2cccc3c2CCO3)n2cnnc12 [Example 67, 2-(4-(5-(((2,3-dihydrobenzofuran-4-yl)methyl)amino)-[1,2,4]triazolo[4,3-c]pyrimidin-8-yl)-3,5-dimethyl-1H-pyrazol-1-yl)ethanol] | 0.0309 | 0.0902 |
| Fc1ccc2c(c1CNc1ncc(-c3cncnc3)c3nncn13)CCO2 [Example 206, N-((5-fluoro-2,3-dihydrobenzofuran-4-yl)methyl)-8-(pyrimidin-5-yl)-[1,2,4]triazolo[4,3-c]pyrimidin-5-amine] | 0.0091 | 0.0095 |
| CC1CCCN1c1ccc(-c2cnc(NCc3cccc4c3CCO4)n3cnnc23)cn1 (stereo not drawn) [Example 96, N-((2,3-dihydrobenzofuran-4-yl)methyl)-8-(6-(2-methylpyrrolidin-1-yl)pyridin-3-yl)-[1,2,4]triazolo[4,3-c]pyrimidin-5-amine] | 0.026 | 0.0132 |
| N#Cc1ccc(-c2cnc(NCc3c(F)ccc4c3CCO4)n3cnnc23)cn1 [Example 93, 5-(5-(((5-fluoro-2,3-dihydrobenzofuran-4-yl)methyl)amino)-[1,2,4]triazolo[4,3-c]pyrimidin-8-yl)picolinonitrile] | 0.0079 | 0.0125 |
| Cc1cc(-c2cnc(NCc3cccc4c3CCO4)n3cnnc23)cnc1S(C)(=O)=O [Example 70, N-((2,3-dihydrobenzofuran-4-yl)methyl)-8-(5-methyl-6-(methylsulfonyl)pyridin-3-yl)-[1,2,4]triazolo[4,3-c]pyrimidin-5-amine] | 0.0115 | 0.0211 |
| COc1ncc(-c2cnc(NCc3c(F)ccc4c3CCO4)n3cnnc23)cn1 [Example 174, N-((5-fluoro-2,3-dihydrobenzofuran-4-yl)methyl)-8-(2-methoxypyrimidin-5-yl)-[1,2,4]triazolo[4,3-c]pyrimidin-5-amine] | 0.0047 | 0.0062 |
| Cc1cnn(-c2cnc(NCc3c(F)ccc4c3CCO4)n3cnnc23)c1 [Example 239, N-((5-fluoro-2,3-dihydrobenzofuran-4-yl)methyl)-8-(4-methyl-1H-pyrazol-1-yl)-[1,2,4]triazolo[4,3-c]pyrimidin-5-amine] | 0.0068 | 0.0159 |
| CS(=O)(=O)CCCOc1cncc(-c2cnc(NCc3cccc4c3CCO4)n3cnnc23)c1 [Example 98, N-((2,3-dihydrobenzofuran-4-yl)methyl)-8-(5-(3-(methylsulfonyl)propoxy)pyridin-3-yl)-[1,2,4]triazolo[4,3-c]pyrimidin-5-amine] | 0.0217 | 0.0356 |
| Cc1c(-c2cnc(NCc3c(F)ccc4c3CCO4)n3cnnc23)cnn1CCO [Example 189, 2-(4-(5-(((5-fluoro-2,3-dihydrobenzofuran-4-yl)methyl)amino)-[1,2,4]triazolo[4,3-c]pyrimidin-8-yl)-5-methyl-1H-pyrazol-1-yl)ethanol] | 0.0042 | 0.0087 |
| CS(=O)(=O)c1ccc(-c2cnc(NCc3cccc4c3CCO4)n3cnnc23)c(F)c1 [Example 26, N-((2,3-dihydrobenzofuran-4-yl)methyl)-8-(2-fluoro-4-(methylsulfonyl)phenyl)-[1,2,4]triazolo[4,3-c]pyrimidin-5-amine] | 0.0099 | 0.0171 |
| CC(C)(O)c1ccc(-c2cnc(NCc3cccc4c3CCO4)n3cnnc23)cn1 [Example 99, 2-(5-(5-(((2,3-dihydrobenzofuran-4-yl)methyl)amino)-[1,2,4]triazolo[4,3-c]pyrimidin-8-yl)pyridin-2-yl)propan-2-ol] | 0.0042 | 0.0067 |
| COCc1ncc(-c2cnc(NCc3cccc4c3CCO4)n3cnnc23)cc1C [Example 83, N-((2,3-dihydrobenzofuran-4-yl)methyl)-8-(6-(methoxymethyl)-5-methylpyridin-3-yl)-[1,2,4]triazolo[4,3-c]pyrimidin-5-amine] | 0.0105 | 0.0228 |
| CCn1nccc1-c1cnc(NCc2c(F)ccc3c2CCO3)n2cnnc12 [Example 143, 8-(1-ethyl-1H-pyrazol-5-yl)-N-((5-fluoro-2,3-dihydrobenzofuran-4-yl)methyl)-[1,2,4]triazolo[4,3-c]pyrimidin-5-amine] | 0.0181 | 0.0315 |
| CS(=O)(=O)c1ccc(-c2cnc(NCc3cccc4occc34)n3cnnc23)cc1 [Example 214, N-(benzofuran-4-ylmethyl)-8-(4-(methylsulfonyl)phenyl)-[1,2,4]triazolo[4,3-c]pyrimidin-5-amine] | 0.0374 | 0.0225 |
| Cn1cc(-c2cnc(NCc3c(F)ccc4c3CCO4)n3cnnc23)cn1 [Example 147, N-((5-fluoro-2,3-dihydrobenzofuran-4-yl)methyl)-8-(1-methyl-1H-pyrazol-4-yl)-[1,2,4]triazolo[4,3-c]pyrimidin-5-amine] | 0.0036 | 0.0159 |
| CN(C)C(=O)c1ccc(-c2cnc(NCc3c(F)ccc4c3CCO4)n3cnnc23)cn1 [Example 140, 5-(5-(((5-fluoro-2,3-dihydrobenzofuran-4-yl)methyl)amino)-[1,2,4]triazolo[4,3-c]pyrimidin-8-yl)-N,N-dimethylpicolinamide] | 0.0127 | 0.0551 |
| Cc1nn(C[C@H](C)O)c(C)c1-c1cnc(NCc2c(F)ccc3c2CCO3)n2cnnc12 [Example 187, (2S)-1-(4-(5-(((5-fluoro-2,3-dihydrobenzofuran-4-yl)methyl)amino)-[1,2,4]triazolo[4,3-c]pyrimidin-8-yl)-3,5-dimethyl-1H-pyrazol-1-yl)propan-2-ol] | 0.0082 | 0.0125 |
| OCCN1CCN(c2ccc(-c3cnc(NCc4cccc5c4CCO5)n4cnnc34)cn2)CC1 [Example 110, 2-(4-(5-(5-(((2,3-dihydrobenzofuran-4-yl)methyl)amino)-[1,2,4]triazolo[4,3-c]pyrimidin-8-yl)pyridin-2-yl)piperazin-1-yl)ethanol] | 0.0093 | 0.0152 |
| Fc1ccc2c(c1CNc1ncc(-c3ccnc(C(F)(F)F)c3)c3nncn13)CCO2 [Example 185, N-((5-fluoro-2,3-dihydrobenzofuran-4-yl)methyl)-8-(2-(trifluoromethyl)pyridin-4-yl)-[1,2,4]triazolo[4,3-c]pyrimidin-5-amine] | 0.0044 | 0.0067 |
| Fc1ccc2c(c1CNc1ncc(-c3ccc(C4CC4)nc3)c3nncn13)CCO2 [Example 119, 8-(6-cyclopropylpyridin-3-yl)-N-((5-fluoro-2,3-dihydrobenzofuran-4-yl)methyl)-[1,2,4]triazolo[4,3-c]pyrimidin-5-amine] | 0.004 | 0.0066 |
| CC(c1ccc(-c2cnc(NCc3cccc4occc34)n3cnnc23)cc1)N1CCCC1 (stereo not drawn) [Example 210, N-(benzofuran-4-ylmethyl)-8-(4-(1-(pyrrolidin-1-yl)ethyl)phenyl)-[1,2,4]triazolo[4,3-c]pyrimidin-5-amine] | 0.0185 | 0.0214 |
| OCCn1cc(-c2cnc(NCc3cccc4c3CCO4)n3cnnc23)cn1 [Example 34, 2-(4-(5-(((2,3-dihydrobenzofuran-4-yl)methyl)amino)-[1,2,4]triazolo[4,3-c]pyrimidin-8-yl)-1H-pyrazol-1-yl)ethanol] | 0.0375 | 0.0494 |
| Cc1nn(CCO)c(C)c1-c1cnc(NCc2c(F)ccc3c2CCO3)n2cnnc12 [Example 158, 2-(4-(5-(((5-fluoro-2,3-dihydrobenzofuran-4-yl)methyl)amino)-[1,2,4]triazolo[4,3-c]pyrimidin-8-yl)-3,5-dimethyl-1H-pyrazol-1-yl)ethanol] | 0.0051 | 0.0096 |
